Test system: U-937
Assay: Cytotoxicity against human U937 cells after 48 hrs by MTT assat
Type: functional, cell-based
Conditions: U-937, 48 h

SMILES | IC50 [µM]
O=P1(c2ccccc2)C=CCC1 (configuration not stated) | > 1000
CC1=CP(=O)(c2ccccc2)CC1 (configuration not stated) | 900
CC1=CP(=O)(c2ccccc2)CC1C (configuration not stated) | 350
O=P1(c2ccccc2)C=CC(Br)C1 (configuration not stated) | > 1000
CC1=CP(=O)(c2ccccc2)CC1Br (configuration not stated) | 87
CC1=CP(=O)(c2ccccc2)CC1(C)Br (configuration not stated) | 5.6
CCC1=CP(=O)(c2ccccc2)CC1Br (configuration not stated) | > 1000

— ChEMBL document CHEMBL1255547, “Preparation and characterization of novel 4-bromo-3,4-dimethyl-1-phenyl-2-phospholene 1-oxide and the analogous phosphorus heterocycles or phospha sugars” (Bioorg Med Chem Lett, 2010)
